Assay results as given in ChEMBL document CHEMBL1152844, “Synthesis and anti-HIV studies of 2- and 3-adamantyl-substituted thiazolidin-4-ones” (Eur J Med Chem, 2009).
Calls of active or inactive are those of the source. No cut-off for these calls is given here.

What was measured:
[1] = Inhibition of HIV2 ROD reverse transcriptase after 30 mins; design: species or system Human immunodeficiency virus 2
Sindbis virus = assay: Antiviral activity against Sindbis virus infected in african green monkey Vero cells; type: functional, organism-based
[2] = test system: Human immunodeficiency virus 2; assay: Antiviral activity against HIV2 ROD infected in human CEM cells assessed as inhibition of virus-induced cytopathicity after 4 days; type: functional, organism-based; conditions: Human immunodeficiency virus 2, ROD, CCRF-CEM, 96 h
CCRF-CEM = assay: (§1) Cytotoxicity against HIV-infected human CEM cells; type: cell-based; conditions: ccrf-cem
Coxsackievirus B4 [3] = assay: Antiviral activity against Coxsackievirus B4 infected in african green monkey Vero cells; type: functional, organism-based
Feline coronavirus = assay: Antiviral activity against Feline coronavirus infected in crandel feline kidney cells; type: functional, organism-based
[4] = Selectivity index, ratio of CC50 for human CEM cells to EC50 for HIV1 3B; type: toxicity, cell-based, CCRF-CEM; conditions: read-out: Ratio CC50/EC50
Punta Toro virus = assay: Antiviral activity against Punta Toro virus infected in african green monkey Vero cells; type: functional, organism-based
[5] = target: T1, Human immunodeficiency virus type 1 reverse transcriptase (Human immunodeficiency virus 1, UniProt Q72547); assay: Inhibition of HIV1 3B reverse transcriptase after 30 mins
[6] = test system: Vesicular stomatitis virus; assay: Antiviral activity against Vesicular stomatitis virus infected in human HeLa cells; type: functional, organism-based
Influenza A virus [7] = assay: Antiviral activity against Influenza virus type A H3N2 infected in MDCK cells; type: functional, organism-based
[8] = test system: Human immunodeficiency virus 1; assay: Antiviral activity against HIV1 3B infected in human CEM cells assessed as inhibition of virus-induced cytopathicity after 4 days; type: functional, organism-based; conditions: Human immunodeficiency virus 1, 3B, CCRF-CEM, 96 h
Coxsackievirus B4 [9] = assay: Antiviral activity against Coxsackievirus B4 infected in human HeLa cells; type: functional, organism-based
[10] = test system: Respiratory syncytial virus; assay: Antiviral activity against Respiratory syncytial virus infected in human HeLa cells; type: functional, organism-based
Influenza A virus [11] = assay: Antiviral activity against Influenza virus type A H1N1 infected in MDCK cells; type: functional, organism-based
Human respirovirus 3 = assay: Antiviral activity against Parainfluenza virus type 3 infected in african green monkey Vero cells; type: functional, organism-based
Vaccinia virus = assay: Antiviral activity against Vaccinia virus infected in HEL cells; type: functional, organism-based; conditions: Orthopoxvirus vaccinia
[12] = test system: Vesicular stomatitis virus; assay: Antiviral activity against Vesicular stomatitis virus infected in HEL cells; type: functional, organism-based
Human alphaherpesvirus 2 = assay: Antiviral activity against Herpes simplex virus type 2 infected in HEL cells; type: functional, organism-based
[13] = test system: Mammalian orthoreovirus 1; assay: Antiviral activity against Reovirus 1 infected in african green monkey Vero cells; type: functional, organism-based
Human alphaherpesvirus 1 = assay: Antiviral activity against Herpes simplex virus type 1 infected in HEL cells; type: functional, organism-based
Influenza B virus = assay: Antiviral activity against Influenza virus type B infected in MDCK cells; type: functional, organism-based
[14] = as §1; type: cell-based, CCRF-CEM; conditions: HIV-infected CEM (CCRF-CEM) cells
[15] = target: T1, Human immunodeficiency virus type 1 reverse transcriptase; assay: Activity at HIV1 non-nucleoside reverse transcriptase
[16] = target: Human immunodeficiency virus type 1 reverse transcriptase (Human immunodeficiency virus 1) (UniProt Q72547); assay: Ratio of Ki to Km for HIV1 non-nucleoside reverse transcriptase

Compound | Activity (Sindbis virus) | EC50 [2] | CC50 (CCRF-CEM) | Activity (Coxsackievirus B4 [3]) | Activity (Feline coronavirus) | selectivity ratio [4] | Activity (Punta Toro virus) | Activity [6] | Activity (Influenza A virus [7]) | EC50 [8] | Activity (Coxsackievirus B4 [9]) | Activity [10] | Activity (Influenza A virus [11]) | Activity (Human respirovirus 3) | Activity (Vaccinia virus) | Activity [12] | Activity (Human alphaherpesvirus 2) | Activity [13] | Activity (Human alphaherpesvirus 1) | Activity (Influenza B virus) | further results
O=C1CSC(c2c(Cl)cccc2Cl)N1CC12CC3CC(CC(C3)C1)C2 (stereo unspecified) | inactive | ≥ 10.1 µM | 21.1 µM | inactive | inactive | 21 | inactive | inactive | inactive | 1 µM | inactive | inactive | inactive | inactive | inactive | inactive | inactive | inactive | inactive | inactive | IC50 [1]: ≥ 600 µM; IC50 [5]: 42.9 µM
CCN(CC)CCN1C(=O)CSC1CC12CC3CC(CC(C3)C1)C2 (stereo unspecified) | inactive | 46 µM | – | inactive | inactive | < 1.4 | inactive | inactive | inactive | 30.8 µM | inactive | inactive | inactive | inactive | inactive | inactive | inactive | inactive | inactive | inactive | CC50 [14]: 43 µM
O=C1CSC(c2c(F)cccc2F)N1CC12CC3CC(CC(C3)C1)C2 (stereo unspecified) | inactive | 35.7 µM | > 275 µM | inactive | inactive | > 25 | inactive | inactive | inactive | 11 µM | inactive | inactive | inactive | inactive | inactive | inactive | inactive | inactive | inactive | inactive | IC50 [1]: > 600 µM; IC50 [5]: 495 µM
Cc1cc(C)nc(N2C(=O)CS[C@@H]2C23CC4CC(CC(C4)C2)C3)c1 | inactive | – | – | inactive | inactive | – | inactive | inactive | inactive | – | inactive | inactive | inactive | inactive | inactive | inactive | inactive | inactive | inactive | inactive | IC50 [1]: > 600 µM; IC50 [5]: 13.4 µM
Cc1cc(C)nc(N2C(=O)CSC2C23CC4CC(CC(C4)C2)C3)c1 (racemic) | inactive | > 12 µM | – | inactive | inactive | 120 | inactive | inactive | inactive | – | inactive | inactive | inactive | inactive | inactive | inactive | inactive | inactive | inactive | inactive | Ki [15]: 12 µM; Ratio [16]: 5.5
CN(C)CCN1C(=O)CSC1CC12CC3CC(CC(C3)C1)C2 (stereo unspecified) | inactive | ≥ 62 µM | 77 µM | inactive | inactive | < 1.4 | inactive | inactive | inactive | 53 µM | inactive | inactive | inactive | inactive | inactive | inactive | inactive | inactive | inactive | inactive | –
O=C1CSC(c2c(Cl)cccc2Cl)N1CCC12CC3CC(CC(C3)C1)C2 (stereo unspecified) | inactive | ≥ 9.7 µM | 19 µM | inactive | inactive | 5.5 | inactive | inactive | inactive | 3.4 µM | inactive | inactive | inactive | inactive | inactive | inactive | inactive | inactive | inactive | inactive | IC50 [1]: > 600 µM; IC50 [5]: 226 µM
O=C1CSC(c2c(F)cccc2F)N1CCC12CC3CC(CC(C3)C1)C2 (stereo unspecified) | inactive | ≥ 4 µM | 7.9 µM | inactive | inactive | 4 | inactive | inactive | inactive | 2 µM | inactive | inactive | inactive | inactive | inactive | inactive | inactive | inactive | inactive | inactive | IC50 [1]: ≥ 600 µM; IC50 [5]: 31.7 µM
Cc1ccnc(N2C(=O)CSC2C23CC4CC(CC(C4)C2)C3)n1 (stereo unspecified) | inactive | > 60.7 µM | 136 µM | inactive | inactive | 30 | inactive | inactive | inactive | 4.5 µM | inactive | inactive | inactive | inactive | inactive | inactive | inactive | inactive | inactive | inactive | –
